Results taken from US20240382489A1, “LIQUID PHARMACEUTICAL COMPOSITION” (Verona Pharma PLC, priority 2023, published 2024).

System: patients aged 40-80 years with moderate to severe COPD
Assay: Clinical study of nebulised ensifentrine vs placebo in COPD: lung function (FEV1)
Format: in vivo, human
Settings: 3 mg BID by nebuliser
Procedure: A clinical study was conducted to determine the efficacy of ensifentrine in treating COPD compared with placebo. Ensifentrine was administered by nebuliser at a dose of 3 mg twice daily (BID) for 24 weeks. The study was a multi-centre, randomized, double-blind, parallel-group, placebo-controlled trial with around 800 patients and 5:3 randomization.
The study population included patients aged 40-80 years with moderate to severe COPD (FEV130%-70% p.n., FEV1/forced vital capacity (FVC) ratio<0.7, with mMRC≥2). The randomization stratified (a) the use of stable background maintenance LAMA or LABA therapy use (approx. 50%. yes or no) and (b) cigarette smoking (current or former). Inhaled corticosteroid (ICS) maintenance therapy was permitted in up to 20% of patients under certain provisions.
The primary endpoint of the study was change from baseline in average FEV1 area under the curve (AUC)0-12 h post-dose at week 12. Secondary endpoints of the study included: peak FEV1 over 4 hours post-dose at Week 12; morning trough FEV1 at Week 12; and other endpoints including moderate/severe COPD exacerbations frequency over 24 Weeks.
Baseline FEV1 is the mean of the two measurements taken before study medication on the day of first dosing, i.e., ≤40 minutes and just prior to dosing, both pre-dose on day 1. […]

**Q.** Which “improvement in lung function in all subgroups of COPD patients” value does the source give for `COc1cc2c(cc1OC)-c1c/c(=N\c3c(C)cc(C)cc3C)n(CCNC(N)=O)c(=O)n1CC2` [Ensifentrine, N-(2-{(2E)-9,10-dimethoxy-4-oxo-2-[(2,4,6-trimethylphenyl)imino]-6,7-dihydro-2H-pyrimido[6,1-a]isoquinolin-3(4H)-yl}ethyl)urea] here?
**A.** The value was “statistically significant improvement in lung function”.
